Results from ChEMBL document CHEMBL1148041, “New fatty acid esters of drimane sesquiterpenes from Lactarius uvidus” (J Nat Prod, 1994).

Key:
[1] = system: HL-60; assay: Cytotoxicity against human HL60 cells assessed as inhibition of [3H]thymidine incorporation at 50 gamma/ml; format: functional
[2] = system: HL-60; assay: Cytotoxicity against human HL60 cells assessed as inhibition of [3H]thymidine incorporation at 0.05 gamma/ml; format: functional
[3] = system: Artemia salina; assay: Toxicity in Artemia salina; format: organism-based; settings: in vivo

Row | Compound | inhibition (INH) [1] | inhibition (INH) [2] | LC50 [3]
1 | CC1(C)CCC[C@]2(C)[C@@H](CO)[C@@]3(C)O[C@H]3C(=O)[C@@H]12 [UVIDIN A] | 97% | 21% | 48.8 ppm
2 | CC1(C)[C@@H](O)CC[C@]2(C)[C@@H](CO)[C@@]3(C)O[C@H]3C(=O)[C@@H]12 [UVIDIN B] | 61% | 0% | –
